Test results reported in publication PMC3852661, “Structural basis of SUFU–GLI interaction in human Hedgehog signalling regulation” (Acta Crystallographica Section D: Biological Crystallography, 2013).

Assays:
[1] = test system: MBP-SUFU-FL, mutation of Tyr147; experiment: Microscale thermophoresis, MBP-SUFU-FL mutated at Tyr147; format: binding, human; settings: mutation of Tyr147 in MBP-SUFU-FL, data not shown
Experimental: (§1) A 5-FAM-labelled peptide (FAM-GLI1p) comprising residues 115–131 of GLI1 (Supplementary Table S1b) was synthesized by Pepceuticals Ltd. A titration series of each recombinant protein was prepared by serial 1:1 dilutions in MST buffer (50 mM Tris–HCl pH 7.6, 150 mM NaCl, 10 mM MgCl2, 0.05% Tween-20) and mixed in a 1:1 ratio with FAM-GLI1p to give final concentrations of 50 nM FAM-GLI1p with MBP-SUFU constructs in the ranges 14.2–29 070 and 54–110 500 nM. Reactions were aspirated into glass capillaries and the thermophoretic movement of FAM-GLI1p was monitored using a Monolith NT.115 instrument (NanoTemper Technologies; Wienken et al., 2010[▶]), with a laser on for 30 s and off for 5 s and a laser power/voltage of 20% for MBP-SUFU-FL and the MBP-SUFU-FL mutants, 40% for MBP-SUFU-Δ and 80% for MBP-SUFU-SH. Fluorescence was measured before laser heating (F Cold) and after 30 s of laser-on time (F Hot). The normalized fluorescence F Hot/F Cold reflects the concentration ratio of labelled molecules. F Hot/F Cold was plotted directly and multiplied by a factor of […], yielding a relative change in fluorescence per thousand. K d was calculated from three independent thermophoresis measurements using NanoTemper software (NanoTemper Technologies). […]

[2] = test system: MBP-SUFU-FL, mutation of Glu376; experiment: Microscale thermophoresis, MBP-SUFU-FL mutated at Glu376; format: binding, human; settings: mutation of Glu376 in MBP-SUFU-FL, data not shown
Experimental: as §1

[3] = target: T1, MBP-SUFU-FL (Homo sapiens, UniProt Q9UMX1); experiment: Thermal stability assay with peptide, MBP-SUFU-FL; format: binding; settings: 44 µM peptide, 2.2 µM protein, SYPRO Orange, 50 mM Na HEPES pH 7.0, 50 mM NaCl, 5 mM β-mercaptoethanol; triplicate
T1 construct: containing residues 32–483 of human SUFU and a C-terminal hexahistidine tag; hexahistidine tag (C); made in house; host or cells: Escherichia coli JM109 (DE3)
T1 sequence (Q9UMX1 32-483, other chains not shown): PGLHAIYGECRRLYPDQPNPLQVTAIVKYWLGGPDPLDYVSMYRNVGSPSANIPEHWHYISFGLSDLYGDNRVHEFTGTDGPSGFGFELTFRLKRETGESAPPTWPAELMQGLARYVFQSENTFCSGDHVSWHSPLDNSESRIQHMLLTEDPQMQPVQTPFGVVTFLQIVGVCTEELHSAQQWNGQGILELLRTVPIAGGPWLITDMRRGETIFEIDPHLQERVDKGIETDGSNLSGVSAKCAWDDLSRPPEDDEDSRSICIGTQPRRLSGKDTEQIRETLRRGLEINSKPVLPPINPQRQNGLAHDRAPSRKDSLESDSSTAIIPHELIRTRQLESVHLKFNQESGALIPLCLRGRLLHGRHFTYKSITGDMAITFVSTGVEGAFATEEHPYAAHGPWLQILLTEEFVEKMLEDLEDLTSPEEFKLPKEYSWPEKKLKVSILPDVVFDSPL
Experimental: Recombinant MBP-SUFU proteins were diluted to 2.6 μM in 50 mM Na HEPES pH 7.0, 50 mM NaCl, 5 mM β-mercaptoethanol; the peptides GLI1p and GLI1p-SH (Supplementary Table S1b), synthesized by Dr W. Mawby (University of Bristol), were dissolved in the same buffer. Proteins were spun at 14 000g for 20 min at 4°C before adding SYPRO Orange (Molecular Probes) to a final concentration of 6×. Reaction volumes of 25 μl were prepared in 96-well PCR plates with 2.2 μM protein/SYPRO Orange solution and, where applicable, 44 μM peptide. Plates were sealed with optical tape, heated from 20 to 90°C in 12 s 0.2°C steps in an iCycler and fluorescence was detected using an excitation wavelength of 470 nm and an emission wavelength of 570 nm. To determine whether the IDR affects the GLI-binding properties of SUFU, we used a human GLI1-derived peptide (GLI1p; residues 115-131; Supplementary Table S1b) containing the highly conserved SYGH motif important for interaction with SUFU (Dunaeva et al., 2003[▶]) in a thermal stability assay with MBP-SUFU-FL and MBP-SUFU-Δ (Fig. 4 ▶ a). The addition of GLI1p stabilized both proteins: T m for MBP-SUFU-FL was shifted by 4°C and that for MBP-SUFU-Δ was shifted by 3.6°C. […] The GLI1 dose dependency of this effect was confirmed in a separate experiment with increasing GLI1p concentrations (Supplementary Fig. […]).

- detectable binding [1]: abolished detectable binding
- detectable binding [2]: abolished detectable binding
- Tm shift [3]: 4 °C
Substance: GLI1p: human GLI1-derived peptide; residues 115–131, containing the highly conserved SYGH motif (TSPGGSYGHLSIGTMSP)
